The target in assay [1] is T1, STAT1 (Homo sapiens, UniProt P42224).
T1 sequence (P42224 1-750): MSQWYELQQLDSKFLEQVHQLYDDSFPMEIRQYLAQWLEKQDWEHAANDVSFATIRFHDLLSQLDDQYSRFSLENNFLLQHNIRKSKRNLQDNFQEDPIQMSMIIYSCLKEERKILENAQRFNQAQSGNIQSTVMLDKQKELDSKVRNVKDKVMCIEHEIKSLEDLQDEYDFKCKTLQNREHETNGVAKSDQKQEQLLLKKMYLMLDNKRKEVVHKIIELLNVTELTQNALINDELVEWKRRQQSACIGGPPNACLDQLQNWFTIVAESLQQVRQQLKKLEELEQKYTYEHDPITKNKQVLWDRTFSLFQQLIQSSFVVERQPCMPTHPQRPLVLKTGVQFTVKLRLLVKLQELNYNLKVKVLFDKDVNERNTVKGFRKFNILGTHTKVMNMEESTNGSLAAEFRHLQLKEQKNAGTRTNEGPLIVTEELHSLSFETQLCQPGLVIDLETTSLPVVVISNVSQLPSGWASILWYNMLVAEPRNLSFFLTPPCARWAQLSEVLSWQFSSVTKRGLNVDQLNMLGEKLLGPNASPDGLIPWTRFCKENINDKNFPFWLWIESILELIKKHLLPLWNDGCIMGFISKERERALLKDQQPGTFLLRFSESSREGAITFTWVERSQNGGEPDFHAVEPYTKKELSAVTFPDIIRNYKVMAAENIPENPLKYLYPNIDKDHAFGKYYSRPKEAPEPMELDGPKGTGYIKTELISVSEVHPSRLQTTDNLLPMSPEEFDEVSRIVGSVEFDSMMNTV
Put plainly: Competitive fluorescence polarization (FP) binding assay, STAT1. Conditions: for IC50: 2 % DMSO for 5, 10 % DMSO for 10; for Ki: Ki calculated from IC50, 2 % DMSO for 5, 10 % DMSO for 10. The procedure: (§1) Fluorescence polarization assays: Competitive binding assays based on fluorescence polarization were carried out essentially as previously described.[[4a]] Unless stated otherwise, final concentrations of the buffer components were: 10 mM Tris (pH 8.0), 50 mM NaCl, 1 mM EDTA, 1 mM DTT, 0.1 % (v/v) Nonidet P‐40 substitute, and 2 % DMSO. Proteins were used at concentrations which reflect the Kd values of the interactions between the fluoropeptide and the protein preparations. Protein concentrations used for activity analysis of compound 5 were 91 nM for STAT1, 107 nM for STAT3, 28 nM for STAT4, 122 nM for STAT5a, 56 nM for STAT5b and 101 nM for STAT6. Protein concentrations used for activity analysis of AC‐4‐130 were 103 nM for STAT5a and 62 nM for STAT5b. […] Final concentration of all fluorescent‐labelled peptides was 10 nM. The following peptides were used in assays: 5‐carboxyfluorescein‐GpYDKPHVL for STAT1; 5‐carboxyfluorescein‐GpYLPQTV‐NH2 for STAT3; 5‐carboxyfluorescein‐GpYLPQNID for STAT4; 5‐carboxyfluorescein‐GpYLVLDKW for STAT5a/5b, and 5‐carboxyfluorescein‐GpYVPWQDLI for STAT6. Protein and test compounds were incubated for 1 h prior to addition of the fluorescein‐labeled peptide. Fluorescence polarization was measured after another 60 min using an Infinite F500 plate reader (Tecan). IC50 values were converted to Ki‐values using the published equation.[13]

In assay [2] the target is STAT3 (Homo sapiens, UniProt P40763). Put plainly: Competitive fluorescence polarization (FP) binding assay, STAT3. Conditions: 2 % DMSO for 5, 10 % DMSO for 10. The procedure:
as §1
(Fluorescence polarisation rises when a labelled molecule tumbles more slowly, as on binding a larger partner.)

The target of assay [3] is T2, STAT5b (Homo sapiens, UniProt P51692).
T2 sequence (P51692 1-787): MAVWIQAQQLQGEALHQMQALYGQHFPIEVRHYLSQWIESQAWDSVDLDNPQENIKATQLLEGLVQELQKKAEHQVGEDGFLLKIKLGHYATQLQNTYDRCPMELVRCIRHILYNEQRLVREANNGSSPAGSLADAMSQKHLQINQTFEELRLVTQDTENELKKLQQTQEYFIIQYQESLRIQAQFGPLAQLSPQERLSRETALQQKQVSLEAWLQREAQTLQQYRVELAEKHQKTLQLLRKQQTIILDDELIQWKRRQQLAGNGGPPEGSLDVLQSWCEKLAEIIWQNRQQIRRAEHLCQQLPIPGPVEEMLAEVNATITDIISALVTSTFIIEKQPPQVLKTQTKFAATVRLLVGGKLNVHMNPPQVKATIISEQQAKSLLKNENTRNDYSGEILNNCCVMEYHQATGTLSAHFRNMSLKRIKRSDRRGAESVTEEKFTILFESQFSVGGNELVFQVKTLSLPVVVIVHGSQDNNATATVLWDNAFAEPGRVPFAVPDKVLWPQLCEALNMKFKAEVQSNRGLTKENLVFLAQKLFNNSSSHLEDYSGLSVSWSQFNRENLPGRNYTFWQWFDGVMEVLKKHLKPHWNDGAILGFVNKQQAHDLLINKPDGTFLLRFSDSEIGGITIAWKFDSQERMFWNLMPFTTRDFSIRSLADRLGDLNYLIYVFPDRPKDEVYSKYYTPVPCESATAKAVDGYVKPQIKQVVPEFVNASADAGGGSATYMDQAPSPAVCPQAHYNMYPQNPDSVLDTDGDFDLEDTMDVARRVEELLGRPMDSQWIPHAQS
Put plainly: Competitive fluorescence polarization (FP) binding assay, STAT5b SH2 domain. Conditions: for Ki / IC50: FP assay, 2 % DMSO (10 % DMSO for 10); for Ki: Ki calculated from IC50 (n=3) via published equation; for IC50: n=3; for selectivity for STAT5b over STAT1, STAT3, and STAT6: FP assays. Here is the method:
as §1

STAT3, sequence (P40763 whole entry, species assumed): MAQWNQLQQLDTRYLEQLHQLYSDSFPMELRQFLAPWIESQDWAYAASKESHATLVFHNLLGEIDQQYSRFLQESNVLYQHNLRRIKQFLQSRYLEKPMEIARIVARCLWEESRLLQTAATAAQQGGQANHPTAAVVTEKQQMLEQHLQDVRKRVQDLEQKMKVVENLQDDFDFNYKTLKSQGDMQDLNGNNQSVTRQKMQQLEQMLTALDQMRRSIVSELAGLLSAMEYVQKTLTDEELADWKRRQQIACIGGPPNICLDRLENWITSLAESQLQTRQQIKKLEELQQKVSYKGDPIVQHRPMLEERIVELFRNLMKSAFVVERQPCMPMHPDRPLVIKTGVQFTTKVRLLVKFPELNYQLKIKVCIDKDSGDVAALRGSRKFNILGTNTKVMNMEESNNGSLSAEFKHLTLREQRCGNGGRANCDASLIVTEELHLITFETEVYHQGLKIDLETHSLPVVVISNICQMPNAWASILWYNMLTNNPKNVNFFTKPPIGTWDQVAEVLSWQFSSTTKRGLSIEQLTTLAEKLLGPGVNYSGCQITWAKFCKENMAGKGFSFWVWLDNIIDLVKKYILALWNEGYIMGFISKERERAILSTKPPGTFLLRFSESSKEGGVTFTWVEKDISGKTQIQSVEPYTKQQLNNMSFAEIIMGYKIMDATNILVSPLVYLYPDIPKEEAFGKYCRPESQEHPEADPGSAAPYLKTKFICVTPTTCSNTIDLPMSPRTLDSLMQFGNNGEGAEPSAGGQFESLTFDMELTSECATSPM

The IC50 is the midpoint of a concentration-inhibition curve. For orientation: Ki means a measure of affinity in units of concentration, obtained from inhibition or displacement. By inhibition is commonly meant the relative decrease from the control value, in per cent. For the compound `O=C(CNc1ccc(C(=O)Nc2ccc(Oc3ccccc3)cc2)cc1)NCc1cc(OP(=O)(O)O)cc(OP(=O)(O)O)c1` [compound 5], in assay [1], the IC50 came to 70.4 ± 3.1 µM and the Ki was 34.6 ± 1.5 µM. In assay [2], this compound gave an inhibition at 100 µM of 33 ± 11%. Further, in assay [3], the Ki was 1.5 ± 0.1 µM; the IC50 was 3.1 ± 0.3 µM; the “selectivity for STAT5b over STAT1, STAT3, and STAT6” value is “more than tenfold”.
With `O=C(CNc1ccc(C(=O)Nc2ccc(Oc3ccccc3)cc2)cc1)NCc1cc(C(F)(F)P(=O)(O)O)c(F)c(C(F)(F)P(=O)(O)O)c1` [compound 10], in assay [1], the IC50 amounted to 53.8 ± 1.6 µM and the Ki is 26 ± 0.8 µM. This compound also returned an inhibition at 100 µM in assay [2] of 49 ± 3%. In assay [3], the Ki was 1.8 ± 0.1 µM; the IC50 was 3.7 ± 0.2 µM; the “selectivity for STAT5b over STAT1, STAT3, and STAT6” value is on record as 10–20 fold. The “activity compared with AC-4-130 in FP assay against the SH2 domain of STAT5b” value in assay [3] (Figure 5C) was “substantially more active than AC‐4‐130”.

These data come from PMC10099813, “Stafiba: A STAT5‐Selective Small‐Molecule Inhibitor” (Chembiochem, 2022).
